{
  "source": "patent US8440610B2",
  "about": "“Mapkap kinase-2 as a specific target for blocking proliferation of P53-defective cells” (Massachusetts Institute of Technology, priority 2004, dated 2013)",
  "molecules": {"B1": {"name": "wild-type p47phox: GST-tagged full-length p47phox protein, cytosolic component of NADPH oxidase, used as p38 SAPK substrate (protein)", "chain": "MGDTFIRHIALLGFEKRFVPSQHYVYMFLVKWQDLSEKVVYRRFTEIYEFHKTLKEMFPIEAGAINPENRIIPHLPAPKWFDGQRAAENRQGTLTEYCSTLMSLPTKISRCPHLLDFFKVRPDDLKLPTDNQTKKPETYLMPKDGKSTATDITGPIILQTYRAIANYEKTSGSEMALSTGDVVEVVEKSESGWWFCQMKAKRGWIPASFLEPLDSPDETEDPEPNYAGEPYVAIKAYTAVEGDEVSLLEGEAVEVIHKLLDGWWVIRKDDVTGYFPSMYLQKSGQDVSQAQRQIKRGAPPRRSSIRNAHSIHQRSRKRLSQDAYRRNSVRFLQQRRRQARPGPQSPGSPLEEERQTQRSKPQPAVPPRPSADLILNRCSESTKRKLASAV", "modifications": "left off: a dimerising Fc or GST", "notes": "GST-tagged full-length p47phox protein, cytosolic component of NADPH oxidase, used as p38 SAPK substrate"}},
  "key": {"U2OS cells": {"system": "U2OS cells", "assay": "FACS cell cycle analysis (PI, phospho-histone H3) in U2OS cells", "assay_type": "cell-based, human", "conditions": "untreated U2OS cells blocked in mitosis with nocodazole (100 nM, eighteen hours)", "experimental": "Asynchronous MAPKAP kinase-2 or luciferase shRNA knockdown cells were mock treated or exposed to doxorubicin for thirty hours, and cell cycle progression was monitored by FACS. In one set of experiments, the spindle poison nocodazole was added to the media three hours after addition of doxorubicin, to cause any cells progressing through the cell cycle to arrest in mitosis. DNA content was monitored by PI staining; phospho-histone-H3 staining was used as an indicator of mitotic entry. As shown in the left panels of FIG. 14A, treatment of control luciferase shRNA knockdown cells with doxorubicin led to the accumulation of cells with 4N DNA content, and a lack of phospho-histone-H3 staining in either the absence or presence of nocodazole. The cells expressing the luciferase shRNAs behaved identically to the untransfected doxorubicin-treated control U2OS cell population (FIG. 24B), with the prominent 4N DNA component and the absence of phospho-histone-H3 staining indicative of an intact G2/M checkpoint.\nIn contrast to the G2/M checkpoint response observed in doxorubicin-treated cells, treatment with the DNA intra-strand cross-linker cisplatin caused U2OS cells to predominantly accumulate in the G1 and S phases of the cell cycle over the subsequent thirty hours (FIG. 24C). RNA interference was used to investigate the role of MAPKAP kinase-2 in this process. […] Strikingly, when nocodazole was added three hours following cisplatin addition, the MAPKAP kinase-2 depleted cells accumulated in a 4N DNA containing peak with ˜42% of the cells staining strongly for phospho-histone H3. Identical results were obtained in cells treated with a second unrelated siRNA sequence against MAPKAP kinase-2.\nFACS analysis. UV irradiation was performed at 254 nm (UV-C) using a Stratalinker 2400 (Stratagene). U2OS cells were fixed in 70% ethanol overnight at −20° C., permeabilized with PBS containing 0.2% Triton X-100 for twenty minutes at 4° C., blocked with 2% FBS in PBS, and incubated with 1 μg of anti-phospho-histone H3 per 10^6 cells for sixty minutes on ice. […]"}, "p38 MAPK/MK2 pathway": {"system": "p38 MAPK/MK2 pathway", "assay": "Immunoblot of p38 MAPK/MK2 activation after DNA-damaging drugs in U2OS cells", "assay_type": "cell-based, human", "experimental": "(§1) 14-3-3 pull-down assays, immunoblotting, and immunofluorescence. U2OS cells were lysed in lysis buffer: 50 mM Tris/HCl, pH7.8, 150 mM NaCl, 1.0% NP-40, 5 mM EDTA, 2 mM DTT, 8 μg/ml pepstatin, 8 μg/ml aprotinin, 8 μg/ml leupeptin, 2 mM Na3VO4, 10 mM NaF, 1 μM microcystin for twenty minutes at 4° C. Clarified lysates (0.5-2 mg protein) were incubated with 20 μL glutathione beads or amylose beads containing 10-20 μg 14-3-3-GST or 14-3-3-MBP, respectively, for 120 minutes at 4° C. Following washing, lysates and bead-bound proteins were analysed by SDS-PAGE, followed by transfer to PVDF membranes and immunoblotted with the indicated antibodies. For immunofluorescence experiments, U2OS cells were seeded onto 18 mm^2 coverslips, irradiated or mock-treated, fixed, extracted, and immunostained as described previously (Clapperton et al., Nat. Struct. Mol. Biol., 11:512-518, 2004)."}, "MAPKAP kinase-2 [1]": {"biological_target": "T1, MAPKAP kinase-2 (Homo sapiens, UniProt P49137)", "T1 sequence (P49137 whole entry)": "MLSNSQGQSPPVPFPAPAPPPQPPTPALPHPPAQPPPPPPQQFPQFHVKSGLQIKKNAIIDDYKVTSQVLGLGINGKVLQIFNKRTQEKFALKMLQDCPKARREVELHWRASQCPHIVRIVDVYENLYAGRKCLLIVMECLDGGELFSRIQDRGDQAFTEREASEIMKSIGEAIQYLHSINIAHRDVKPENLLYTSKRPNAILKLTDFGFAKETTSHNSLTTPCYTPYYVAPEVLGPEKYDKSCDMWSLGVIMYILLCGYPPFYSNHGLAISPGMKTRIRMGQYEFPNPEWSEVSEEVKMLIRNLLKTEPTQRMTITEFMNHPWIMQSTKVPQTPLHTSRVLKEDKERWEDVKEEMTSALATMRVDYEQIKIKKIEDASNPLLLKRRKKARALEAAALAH", "assay": "Kinetics of in vitro phosphorylation of MK2tides by MAPKAP kinase-2", "assay_type": "biochemical", "parameters": "purchased Upstate", "conditions": "peptide as substrate of MAPKAP kinase-2", "description": "To verify the peptide library screening results, individual peptides (MK2tides) containing the optimal MAPKAP kinase-2 consensus motif LQRQLSI (SEQ ID NO: 16), or mutant versions with Ala substituted at each position in the motif, were synthesized and used for kinetic analysis (FIGS. 3B and 3C). […] The rank order of importance of key residues is Arg-3>Leu-5≈Ile+1>[…]. The optimal MK2tide had neither the lowest Km nor the highest Vmax, but rather had the highest Vmax/Km ratio, consistent with the fact that the peptide library screening approach selects substrates on the basis of optimal Vmax/Km, rather than low Km or high Vmax alone. […]\n(§2) The sequences of the p38 optimal peptide and the p47phox peptide were KKAZGPQGPQSPIE (SEQ ID NO: 22) and KKAZGPQSPGSPLE (SEQ ID NO: 23), respectively. For 14-3-3 pulldowns of Cdc25B following in vitro phosphorylation by p38 or MAPKAP kinase-2, 2.0 μg of Cdc25B was incubated with 10-fold excess 14-3-3-MBP and analyzed by autoradiography. […] Samples were analyzed by SDS-PAGE followed by transfer to nitrocellulose for autoradiography and immunoblotting. The rate of p38α phosphorylation of isolated peptides and full-length p47phox proteins was determined by scintillation counting using peptide concentrations of 100, 400, and 1400 μM, and protein concentrations of 1, 5, 10 and 15 μM, with time points taken at five, ten, and twenty minutes. […]"}, "[2]": {"system": "mouse embryonic fibroblasts (MEFs)", "assay": "Colony survival assay in p53 wild-type and p53−/− MEFs", "assay_type": "cell-based", "conditions": "MEFs that lacked p53; not seen in p53 wild-type MEFs", "experimental": "FIGS. 29A-29B are graphs showing the results of a colony survival assay in which mouse embryonic fibroblasts (MEFs) were treated with increasing doses of doxorubicin or cisplatin for eight hours, rinsed twice with PBS and once with media, and re-plated at an initial density of 5,000 cells/10 cm^2 dish. After eleven days, the number of colonies on the plate was counted and normalized to the number of colonies formed by the same cell type in the absence of treatment with chemotherapeutic drugs. RNA interference using short hairpin RNAs was used with both the p53 wild-type MEFs and the p53^−/− MEFs to knock down the levels of MAPKAP kinase-2 (MK2 shRNA). Short hairpin RNAs against luciferase (luciferase shRNA) were used as a control. […] FIG. 29C is a series of Western blots using the indicated antibodies. These blots verify that p53 polypeptide, and the known p53-responsive gene product p21, is induced by DNA damage only in the p53 wild-type cells (lanes 2, 3, 5, and 6), but not in the p53^−/− cells (lanes 7-12). […]\nThe p53 tumor suppressor protein plays an important role in the cellular response to DNA damage by transcriptionally upregulating the Cdk inhibitor p21 to induce a G1 and G2 arrest. […] Cells were infected with lentiviruses delivering shRNAs against luciferase (control) or MK2 and analyzed 6 days later (FIG. 29C). […] Only minimal amounts of the p53 inducer protein p19ARF were detected. […]"}, "MAPKAP kinase-2 [3]": {"biological_target": "T1, MAPKAP kinase-2", "assay": "Phosphorylation of hsp-27 on Ser-82 after heat shock in U2OS cells (immunoblot)", "assay_type": "cell-based", "parameters": "endogenous in cells; host or cells: U2OS cells", "conditions": "control luciferase shRNA U2OS cells, 42° C. for two hours, 250 nM UCN-01", "experimental": "as §1\nActivation of MK2 by cisplatin, camptothecin, and doxorubicin is strikingly similar to the activation profile reported for Chk1. […] U2OS cells depleted of Chk1 using siRNA were exposed to cisplatin and doxorubicin, and analyzed for activation of MK2. […] The IC50 value we measured for Chk1 is in good agreement with previously published data. […]"}, "[4]": {"system": "Cdc25C Ser-216 phosphorylation", "conditions": "Chk1-depleted cells, low doses of UCN-01 (~300 nM); cited from earlier work"}, "Chk2": {"biological_target": "Chk2 (Homo sapiens, UniProt O96017)", "sequence (O96017 whole entry, species assumed)": "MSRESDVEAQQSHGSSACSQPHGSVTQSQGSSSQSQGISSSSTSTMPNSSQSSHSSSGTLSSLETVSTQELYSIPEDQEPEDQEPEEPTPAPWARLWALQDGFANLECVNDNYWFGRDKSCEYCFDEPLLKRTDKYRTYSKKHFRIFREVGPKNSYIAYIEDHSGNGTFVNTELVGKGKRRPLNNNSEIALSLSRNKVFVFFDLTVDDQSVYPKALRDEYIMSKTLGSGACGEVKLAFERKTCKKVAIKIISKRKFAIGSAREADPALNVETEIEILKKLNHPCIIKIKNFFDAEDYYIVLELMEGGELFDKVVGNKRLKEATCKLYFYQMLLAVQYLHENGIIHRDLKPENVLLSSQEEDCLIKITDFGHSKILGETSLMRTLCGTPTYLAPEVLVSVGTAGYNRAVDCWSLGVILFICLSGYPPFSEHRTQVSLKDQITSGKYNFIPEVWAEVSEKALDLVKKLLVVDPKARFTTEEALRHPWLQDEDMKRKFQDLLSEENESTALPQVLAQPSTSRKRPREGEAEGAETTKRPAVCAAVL", "conditions": "Chk1 versus Chk2; cited from earlier work"}, "p38α SAPK": {"biological_target": "p38α SAPK (Homo sapiens, UniProt Q16539)", "sequence (Q16539 whole entry)": "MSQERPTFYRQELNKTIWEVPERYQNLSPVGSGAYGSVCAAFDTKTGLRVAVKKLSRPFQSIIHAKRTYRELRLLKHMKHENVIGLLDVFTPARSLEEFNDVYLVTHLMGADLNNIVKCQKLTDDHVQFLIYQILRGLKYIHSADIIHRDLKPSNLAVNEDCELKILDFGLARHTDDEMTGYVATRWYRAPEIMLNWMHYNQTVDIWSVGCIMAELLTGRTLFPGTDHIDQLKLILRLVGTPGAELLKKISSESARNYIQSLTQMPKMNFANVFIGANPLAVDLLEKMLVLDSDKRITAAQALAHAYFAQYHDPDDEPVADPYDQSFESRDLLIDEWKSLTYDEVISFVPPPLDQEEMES", "assay": "Kinetics of in vitro substrate phosphorylation by p38α SAPK", "assay_type": "biochemical", "conditions": "GST-tagged full-length protein as substrate", "description": "Wild-type and mutant versions of GST-tagged full-length p47phox protein, rather than isolated peptides, were then used as substrates for in vitro phosphorylation reactions. The wild-type full-length p47phox protein was rapidly phosphorylated by p38α SAPK (FIGS. 1C and 1D). […] Simultaneous mutation of both Ser345 and Ser348 to Ala eliminated phosphorylation of p47phox by p38 SAPK altogether.\nas §2, with “autoradiography. For kinetic measurements, the reactions were terminated by the addition of an equal volume of 0.5 percent phosphoric acid, and 5 μl was spotted onto p81 paper.” for “autoradiography.”"}},
  "data": [
    {"molecule": "COC(=O)Nc1nc2ccc(C(=O)c3cccs3)cc2[nH]1", "note": "[nocodazole]", "values": [
      {"measurement": "cells staining for phospho-histone H3", "setting": "U2OS cells", "value": 42, "unit": "%"}
    ]},
    {"molecule": "C[S+]([O-])c1ccc(-c2nc(-c3ccncc3)c(-c3ccc(F)cc3)[nH]2)cc1", "note": "(stereo not shown) [SB203580]", "values": [
      {"measurement": "MK2 activation by DNA damaging agents", "setting": "p38 MAPK/MK2 pathway", "value": "completely abolished MK2 activation"}
    ]},
    {"molecule": "MK2tide: peptide containing the optimal MAPKAP kinase-2 consensus motif LQRQLSI (SEQ ID NO: 16)", "values": [
      {"measurement": "Km value relative to the best MAPKAP kinase-2 peptide substrate known to date (HSP27-derived sequence)", "setting": "MAPKAP kinase-2 [1]", "value": "two-fold lower"}
    ]},
    {"molecule": "CC[C@@]1(O)C(=O)OCc2c1cc1n(c2=O)Cc2cc3ccccc3nc2-1", "note": "[camptothecin]", "values": [
      {"measurement": "time to MK2 activation (reduction in electrophoretic mobility, pThr-344)", "setting": "p38 MAPK/MK2 pathway; U2OS cells, 10 μM drug", "value": "within four hour"}
    ]},
    {"molecule": "MK2 shRNA: lentivirally delivered short hairpin RNA against murine MAPKAP kinase-2 (SEQ ID NO: 26) (TCGATGCGTGTTGACTATGATTCAAGAGATCATAGTCAACACGCATCGTTTTTTC)", "values": [
      {"measurement": "sensitivity to doxorubicin and cisplatin (colony survival)", "setting": "[2]", "value": "increased sensitivity"}
    ]},
    {"molecule": "CN[C@@H]1C[C@H]2O[C@@](C)([C@@H]1OC)n1c3ccccc3c3c4c(c5c6ccccc6n2c5c31)C(=O)N[C@H]4O", "note": "[UCN-01, 7-hydroxystaurosporin]", "values": [
      {"measurement": "phosphorylation of hsp-27 on Ser-82", "setting": "MAPKAP kinase-2 [3]", "value": "completely abrogated"},
      {"measurement": "phosphorylation of Cdc25C on Ser-216", "setting": "[4]", "value": "lost"},
      {"measurement": "IC50 for Chk1 lower than that for Chk2", "setting": "Chk2", "value": "~1000", "unit": "fold"}
    ]},
    {"molecule": "B1", "values": [
      {"measurement": "Vmax for p38 SAPK phosphorylation", "setting": "p38α SAPK", "value": 36.6, "unit": "nmol/min/µg"},
      {"measurement": "Km", "setting": "p38α SAPK; read-out: Km for p38 SAPK phosphorylation", "value": 6, "unit": "µM"}
    ]}
  ]
}
